Reference: US20210009542A1 (Calico Life Sciences LLC, priority 2018, published 2021)
Read-outs that look alike come from different tables or passages of the source.

Columns and labels:
[1] = molecular target: T1, His tagged PTPN2 (TC45) protein (Homo sapiens, UniProt P17706); test: Mobility shift assay (MSA) for potency of PTPN2 inhibitors; format: biochemical; details: read-out: PTPN2 MSA IC50
T1 construct: made in house
T1 sequence (P17706 with tags, fused parts or gaps isoform P17706-2): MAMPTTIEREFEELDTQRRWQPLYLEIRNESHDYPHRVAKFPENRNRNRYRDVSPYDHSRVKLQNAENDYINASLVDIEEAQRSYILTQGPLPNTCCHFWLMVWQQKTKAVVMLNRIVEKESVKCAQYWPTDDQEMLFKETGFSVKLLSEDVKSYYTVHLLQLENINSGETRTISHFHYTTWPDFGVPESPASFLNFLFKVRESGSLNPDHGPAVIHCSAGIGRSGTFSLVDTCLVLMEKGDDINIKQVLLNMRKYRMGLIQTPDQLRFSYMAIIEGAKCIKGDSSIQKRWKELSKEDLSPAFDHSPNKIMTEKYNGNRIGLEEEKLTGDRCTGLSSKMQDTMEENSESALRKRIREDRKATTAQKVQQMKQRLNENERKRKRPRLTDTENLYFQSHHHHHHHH
Summary of the method: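 IC50 values were derived from % inhibition of substrate conversion, measured by microfluidic mobility shift (ex 488/em 530) after quenching. The fluorescent phosphotyrosine insulin-receptor peptide ([…]) reacted for 10 min at room temperature with 0.5 nM His-tagged TC45 PTPN2 that had been preincubated 10 min with compound (12 points, 1:3). Buffer was HEPES pH 7.5 with EGTA, EDTA, Tween 20 and DTT.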

[2] = test system: B16F10 mouse melanoma cells; test: B16F10 IFNγ-induced cellular growth inhibition assay; format: cell-based; details: Mus musculus, B16-F10, 33 μM compound
Experimental: B16F10 mouse melanoma cells (ATCC Cat ^#CRL-6475, Manassas, Va.) were seeded at a density of 500 cells per well in a 384-well clear bottom plate (Corning Cat^# 3765, Corning, N.Y.) in 25 μL total volume of DMEM+10% FBS (Sigma Cat ^#D6429 and Sigma Cat ^#F4135, St. Louis, Mo.). Cells were allowed to adhere overnight at 37° C.+5% CO2. On the following day, 12.5 μL of mouse IFNγ (RD systems Cat485-MI/CF, Minneapolis, Minn.) was added to half of the plate (columns 13-24) at a concentration of 2 ng/mL for a final assay concentration of 0.5 ng/mL of IFNγ. Media only (12.5 μL of DMEM+10% FBS) was added to the remainder of the plate (columns 1-12). Next, compounds resuspended in DMSO (Sigma Cat ^#D2650) at 100 mM were diluted in semi-log dilutions in DMSO ranging from 100 mM to 0.001 mM and DMSO only controls were included. The compound/DMSO dilutions were further diluted 1:250 in DMEM+10% FBS, and 12.5 μL of these dilutions were added in triplicates to cells of both treatment arms (with and without IFNγ). Final compound concentrations ranged from 100 μM to 0.001 μM with a final DMSO concentration of 0.1%. Compounds were only dosed in the inner 240 wells, avoiding the outer 2-well perimeter of the plate to minimize edge effects. Finally, the plate was loaded into an IncuCyte® S3 Live Cell Analysis System (Essen Bioscience-Sartorius, Ann Arbor, Mich.) maintained in a 37° C.+5% CO2 incubator, allowed to equilibrate for 2 hours, and imaged every 6 hours for 5 days. Confluence over time for compound dilutions in the presence and absence of IFNγ was measured. Growth inhibition values were obtained when the “DMSO/no IFNγ” control reached confluence >95%. At these time points, the percent growth inhibition of each compound at the indicated concentration was calculated relative to the “DMSO/with IFNγ” control.

[3] = +0.5 ng/mL IFNγ, relative to DMSO control, read-out: % B16F10 growth inhibition (+0.5 ng/mL IFNγ) @ 33 μM
[4] = no IFNγ, read-out: % B16F10 growth inhibition (no IFNγ) @ 33 μM

Row | SMILES | IC50 [1] [nM] | inhibition at 33 µM [2, 3] [%] | inhibition at 33 µM [2, 4] [%]
1 | O=C1CN(c2c(O)cc3ccc(NCCC4CC4)cc3c2F)S(=O)(=O)N1 [Compound 224, 5-{7-[(2-cyclopropylethyl)amino]-1-fluoro-3-hydroxynaphthalen-2-yl}-1λ^6,2,5-thiadiazolidine-1,1,3-trione] | 1 to 10 | > 90 | < 25
2 | O=C1CN(c2c(O)cc3ccc(NCCCC(F)(F)F)cc3c2F)S(=O)(=O)N1 [Compound 166, 5-{1-fluoro-3-hydroxy-7-[(4,4,4-trifluorobutyl)amino]naphthalen-2-yl}-1λ^6,2,5-thiadiazolidine-1,1,3-trione] | 1 to 10 | > 90 | < 25
3 | CC(C)Oc1ccc2cc(O)c(N3CC(=O)NS3(=O)=O)c(F)c2c1 [Compound 279, 5-{1-fluoro-3-hydroxy-7-[(propan-2-yl)oxy]naphthalen-2-yl}-1λ^6,2,5-thiadiazolidine-1,1,3-trione] | 1 to 10 | 60 to 90 | < 25
4 | CC(C)S(=O)(=O)N1CC=C(c2ccc3cc(O)c(N4CC(=O)NS4(=O)=O)c(F)c3c2)C1 [Compound 296, 5-{1-fluoro-3-hydroxy-7-[1-(propane-2-sulfonyl)-2,5-dihydro-1H-pyrrol-3-yl]naphthalen-2-yl}-1λ^6,2,5-thiadiazolidine-1,1,3-trione] | < 1 | > 90 | < 25
5 | CS(=O)(=O)N1CCC(Nc2ccc3cc(O)c(N4CC(=O)NS4(=O)=O)c(F)c3c2)CC1 [Compound 305, 5-(1-fluoro-3-hydroxy-7-{[1-(methanesulfonyl)piperidin-4-yl]amino}naphthalen-2-yl)-1λ^6,2,5-thiadiazolidine-1,1,3-trione] | 10 to 100 | 60 to 90 | < 25
6 | COCCOc1ccc2cc(O)c(N3CC(=O)NS3(=O)=O)c(F)c2c1 [Compound 119, 5-[1-fluoro-3-hydroxy-7-(2-methoxyethoxy)naphthalen-2-yl]-1λ^6,2,5-thiadiazolidine-1,1,3-trione] | 1 to 10 | 60 to 90 | < 25
7 | O=C1CN(c2c(O)cc3ccc(OCCN4CCCCC4)cc3c2F)S(=O)(=O)N1 [Compound 112, 5-{1-fluoro-3-hydroxy-7-[2-(piperidin-1-yl)ethoxy]naphthalen-2-yl}-1λ^6,2,5-thiadiazolidine-1,1,3-trione] | 10 to 100 | 25 to 59 | < 25
8 | Nc1ccc(CS(=O)(=O)N2CC=C(c3ccc4cc(O)c(N5CC(=O)NS5(=O)=O)c(F)c4c3)C2)cc1 [Compound 184, 5-(7-{1-[(4-aminophenyl)methanesulfonyl]-2,5-dihydro-1H-pyrrol-3-yl}-1-fluoro-3-hydroxynaphthalen-2-yl)-1λ^6,2,5-thiadiazolidine-1,1,3-trione] | < 1 | 25 to 59 | < 25
9 | O=C1CN(c2c(O)cc3ccc(C4=CCN(CC5CC5)C4)cc3c2F)S(=O)(=O)N1 [Compound 242, 5-{7-[1-(cyclopropylmethyl)-2,5-dihydro-1H-pyrrol-3-yl]-1-fluoro-3-hydroxynaphthalen-2-yl}-1λ^6,2,5-thiadiazolidine-1,1,3-trione] | 1 to 10 | 60 to 90 | < 25
10 | NCCOc1ccc2cc(O)c(N3CC(=O)NS3(=O)=O)c(F)c2c1 [Compound 309, 5-[7-(2-aminoethoxy)-1-fluoro-3-hydroxynaphthalen-2-yl]-1λ^6,2,5-thiadiazolidine-1,1,3-trione] | 1 to 10 | 60 to 90 | < 25
11 | O=C1CN(c2c(O)cc3ccc(CC4CCN(CC(F)(F)F)CC4)cc3c2F)S(=O)(=O)N1 [Compound 252, 5-(1-fluoro-3-hydroxy-7-{[1-(2,2,2-trifluoroethyl)piperidin-4-yl]methyl}naphthalen-2-yl)-1λ^6,2,5-thiadiazolidine-1,1,3-trione] | 1 to 10 | 25 to 59 | < 25
12 | O=C1CN(c2c(O)cc3ccc(NCCNS(=O)(=O)C4CC4)cc3c2F)S(=O)(=O)N1 [Compound 125, N-(2-{[8-fluoro-6-hydroxy-7-(1,1,4-trioxo-1λ^6,2,5-thiadiazolidin-2-yl)naphthalen-2-yl]amino}ethyl)cyclopropanesulfonamide] | 1 to 10 | 60 to 90 | < 25
13 | COc1ccc2cc(O)c(N3CC(=O)NS3(=O)=O)c(F)c2c1F [Compound 205, 5-(1,8-difluoro-3-hydroxy-7-methoxynaphthalen-2-yl)-1λ^6,2,5-thiadiazolidine-1,1,3-trione] | 10 to 100 | 25 to 59 | < 25
14 | O=C1CN(c2c(O)cc3ccc(OCCNS(=O)(=O)C4CC4)cc3c2F)S(=O)(=O)N1 [Compound 127, N-(2-{[8-fluoro-6-hydroxy-7-(1,1,4-trioxo-1λ^6,2,5-thiadiazolidin-2-yl)naphthalen-2-yl]oxy}ethyl)cyclopropanesulfonamide] | < 1 | 60 to 90 | < 25
15 | CS(=O)(=O)N1CC(Nc2ccc3cc(O)c(N4CC(=O)NS4(=O)=O)c(F)c3c2)C1 [Compound 128, 5-(1-fluoro-3-hydroxy-7-{[1-(methanesulfonyl)azetidin-3-yl]amino}naphthalen-2-yl)-1λ^6,2,5-thiadiazolidine-1,1,3-trione] | 1 to 10 | > 90 | < 25
16 | O=C1CN(c2c(O)cc3ccc(C4CCS(=O)(=O)CC4)cc3c2F)S(=O)(=O)N1 [Compound 248, 5-[7-(1,1-dioxo-1λ^6-thian-4-yl)-1-fluoro-3-hydroxynaphthalen-2-yl]-1λ^6,2,5-thiadiazolidine-1,1,3-trione] | 1 to 10 | 60 to 90 | < 25
17 | CC(C)(C)OCCOc1ccc2cc(O)c(N3CC(=O)NS3(=O)=O)c(F)c2c1 [Compound 217, 5-[7-(2-tert-butoxyethoxy)-1-fluoro-3-hydroxynaphthalen-2-yl]-1λ^6,2,5-thiadiazolidine-1,1,3-trione] | 1 to 10 | 25 to 59 | < 25
18 | CS(=O)(=O)N1CC[C@@H](Nc2ccc3cc(O)c(N4CC(=O)NS4(=O)=O)c(F)c3c2)C1 [Compound 304, 5-(1-fluoro-3-hydroxy-7-{[(3R)-1-(methanesulfonyl)pyrrolidin-3-yl]amino}naphthalen-2-yl)-1λ^6,2,5-thiadiazolidine-1,1,3-trione] | 1 to 10 | > 90 | < 25
19 | CC(C)(N)CCOc1ccc2cc(O)c(N3CC(=O)NS3(=O)=O)c(F)c2c1 [Compound 165, 5-[7-(3-amino-3-methylbutoxy)-1-fluoro-3-hydroxynaphthalen-2-yl]-1λ^6,2,5-thiadiazolidine-1,1,3-trione] | 1 to 10 | > 90 | < 25
20 | COc1ccc(-c2ccc3cc(O)c(N4CC(=O)NS4(=O)=O)c(F)c3c2)s1 [Compound 227, 5-[1-fluoro-3-hydroxy-7-(5-methoxythiophen-2-yl)naphthalen-2-yl]-1λ^6,2,5-thiadiazolidine-1,1,3-trione] | 1 to 10 | 60 to 90 | < 25
21 | O=C1CN(c2c(O)cc3ccc(OCC4CCOCC4)cc3c2F)S(=O)(=O)N1 [Compound 273, 5-{1-fluoro-3-hydroxy-7-[(oxan-4-yl)methoxy]naphthalen-2-yl}-1λ^6,2,5-thiadiazolidine-1,1,3-trione] | 1 to 10 | 60 to 90 | < 25
